This note sets out measurements from patent publication US20140315889A1, “HYDROXAMATE DERIVATIVES FOR HDAC INHIBITOR, AND THE PHARMACEUTICAL COMPOSITION COMPRISING THEREOF” (CHONG KUN DANG PHARMACEUTICAL CORP., priority 2011, published 2014).

In general, IC50 refers to the point on the concentration scale where inhibition reaches its midpoint.

For one assay, the target named is T1, Human recombinant HDAC1 (Homo sapiens, UniProt Q13547).
T1 construct: purchased Enzo Life Science Co. (named for the kit; assigned to the enzyme from the BML- catalogue prefix) BML-SE456
T1 sequence (Q13547 whole entry): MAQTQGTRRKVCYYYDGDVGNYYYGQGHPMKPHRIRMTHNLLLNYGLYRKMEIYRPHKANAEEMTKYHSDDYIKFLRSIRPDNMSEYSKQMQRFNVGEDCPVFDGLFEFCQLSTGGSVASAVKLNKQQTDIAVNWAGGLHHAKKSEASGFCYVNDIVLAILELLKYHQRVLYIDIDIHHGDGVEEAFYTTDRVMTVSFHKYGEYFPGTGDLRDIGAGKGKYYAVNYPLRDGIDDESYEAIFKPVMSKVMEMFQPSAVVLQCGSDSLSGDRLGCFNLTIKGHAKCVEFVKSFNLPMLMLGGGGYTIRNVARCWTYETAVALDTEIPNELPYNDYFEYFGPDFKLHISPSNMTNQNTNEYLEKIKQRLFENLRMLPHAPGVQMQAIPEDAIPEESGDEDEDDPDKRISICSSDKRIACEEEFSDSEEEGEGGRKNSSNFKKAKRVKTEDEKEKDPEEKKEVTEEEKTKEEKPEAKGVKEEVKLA
As to the kind of experiment: HDAC enzyme activity test, HDAC1. Type of assay: biochemical. The note with it: Table 12; read-out: Inhibition ability (IC50) HDAC1. How it is done:
(§1) Then, 0.3 μg of enzyme and 10 μM of substrate per well were added, reacted at 30° C. for 60 minutes. Thereto, Fluor de Lys® Developer II (BML-KI176) was added and reacted for 30 minutes. […] From the data, the respective IC50 were calculated by GraphPad Prism 4.0 program.

A further assay deals with T2, human recombinant HDAC6 (Homo sapiens, UniProt Q9UBN7).
T2 construct: purchased Calibiochem Co. (so in the source) 382180
T2 sequence (Q9UBN7 1-1215): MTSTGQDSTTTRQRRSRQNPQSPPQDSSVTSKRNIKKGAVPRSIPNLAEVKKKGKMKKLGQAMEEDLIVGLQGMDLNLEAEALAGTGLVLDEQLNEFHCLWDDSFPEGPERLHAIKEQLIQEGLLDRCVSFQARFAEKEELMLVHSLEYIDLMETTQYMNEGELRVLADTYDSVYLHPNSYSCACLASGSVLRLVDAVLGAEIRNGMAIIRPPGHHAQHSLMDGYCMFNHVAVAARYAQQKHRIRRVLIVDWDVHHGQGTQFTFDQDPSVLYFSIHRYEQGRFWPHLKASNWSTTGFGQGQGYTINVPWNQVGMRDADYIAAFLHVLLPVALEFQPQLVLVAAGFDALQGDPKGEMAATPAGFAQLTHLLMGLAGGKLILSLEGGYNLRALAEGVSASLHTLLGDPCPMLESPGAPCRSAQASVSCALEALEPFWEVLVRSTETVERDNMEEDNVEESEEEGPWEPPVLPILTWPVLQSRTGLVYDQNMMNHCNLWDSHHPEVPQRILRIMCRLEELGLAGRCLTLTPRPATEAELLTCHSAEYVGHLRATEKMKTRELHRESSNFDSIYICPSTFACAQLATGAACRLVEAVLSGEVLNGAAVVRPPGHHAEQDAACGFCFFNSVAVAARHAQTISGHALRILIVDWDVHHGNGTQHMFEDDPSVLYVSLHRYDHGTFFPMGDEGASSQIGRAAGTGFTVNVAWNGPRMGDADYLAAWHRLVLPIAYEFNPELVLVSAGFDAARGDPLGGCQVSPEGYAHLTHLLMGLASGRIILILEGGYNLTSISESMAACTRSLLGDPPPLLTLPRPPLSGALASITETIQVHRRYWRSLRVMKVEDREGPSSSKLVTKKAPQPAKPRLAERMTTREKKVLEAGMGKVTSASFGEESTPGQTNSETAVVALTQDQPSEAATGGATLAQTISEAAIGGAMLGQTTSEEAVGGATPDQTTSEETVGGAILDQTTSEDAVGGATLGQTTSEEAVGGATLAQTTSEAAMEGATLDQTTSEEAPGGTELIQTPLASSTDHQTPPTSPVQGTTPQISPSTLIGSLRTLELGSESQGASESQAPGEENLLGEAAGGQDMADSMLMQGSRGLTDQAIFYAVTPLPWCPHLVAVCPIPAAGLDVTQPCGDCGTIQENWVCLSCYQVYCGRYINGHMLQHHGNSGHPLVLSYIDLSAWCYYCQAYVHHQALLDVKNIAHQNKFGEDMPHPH
As to the kind of experiment: HDAC enzyme activity test, HDAC6. Type of assay: biochemical. The note with it: Table 12; for Selectivity for HDAC6, HD1/HD6: ratio HDAC1 IC50 / HDAC6 IC50; for IC50: read-out: Inhibition ability (IC50) HDAC6. How it is done: as §1

Regarding `O=C(NO)c1ccc(Cn2c3c(c4ccccc42)C(=O)NCC3)cc1` [Compound 228, N-hydroxy-4-((1-oxo-1,2,3,4-tetrahydropyrido[4,3-b]indol-5-yl)methyl)benzamide], on Human recombinant HDAC1, the IC50 was 3530 nM. At human recombinant HDAC6, the “Selectivity for HDAC6, HD1/HD6” value turned out to be 208.3 and the IC50 is 16.9 nM.
Turning to `CN1CCN(CCN2CCc3c(c4ccccc4n3Cc3ccc(C(=O)NO)cc3)C2=O)CC1` [Compound 251, N-hydroxy-4-((2-(2-(4-methylpiperazin-1-yl)ethyl)-1-oxo-1,2,3,4-tetrahydropyrido[4,3-b]indol-5-yl)methyl)benzamide], the IC50 on Human recombinant HDAC1 was 1450 nM. On human recombinant HDAC6, the “Selectivity for HDAC6, HD1/HD6” value is 820.3 and the IC50 is 1.77 nM.
As to `CC1(C)CC(=O)c2c(n(CCCCCCC(=O)NO)c3ccc(F)cc23)C1` [Compound 56, 7-(6-fluoro-2,2-dimethyl-4-oxo-1,2,3,4-tetrahydrocarbazol-9-yl)-N-hydroxyheptanamide], the IC50 on Human recombinant HDAC1 was 242 nM. Besides, at human recombinant HDAC6, the “Selectivity for HDAC6, HD1/HD6” value is on record as 58.5 and the IC50 worked out at 4.13 nM.
`O=C(NO)c1ccc(Cn2c3c(c4cc(F)ccc42)C(=O)N(CCN2CCN(CCO)CC2)CC3)cc1` [Compound 288, 4-((8-fluoro-2-(2-(4-(2-hydroxyethyl)piperazin-1-yl)ethyl)-1-oxo-1,2,3,4-tetrahydropyrido[4,3-b]indol-5-yl)methyl)-N-hydroxybenzamide]: the IC50 on Human recombinant HDAC1 stood at 7510 nM. On human recombinant HDAC6, the “Selectivity for HDAC6, HD1/HD6” value was found to be 708.9 and the IC50 was determined as 10.6 nM.
On to `CCCCN1CCN(CC2CCc3c(c4cc(F)ccc4n3CCCCCC(=O)NO)C2=O)CC1` (stereo not drawn) [Compound 326, 6-(3-((4-butylpiperazin-1-yl)methyl)-6-fluoro-4-oxo-1,2,3,4-tetrahydrocarbazol-9-yl)-N-hydroxyhexanamide], for which the IC50 at Human recombinant HDAC1 was determined as 10100 nM; on human recombinant HDAC6, 97.6 nM. The “Selectivity for HDAC6, HD1/HD6” value at human recombinant HDAC6 came out at 103.3.
As for `O=C(NO)c1ccc(Cn2c3c(c4cc(F)ccc42)C(=O)NCC3)cc1` [Compound 306, 4-((8-fluoro-1-oxo-1,2,3,4-tetrahydropyrido[4,3-b]indol-5-yl)methyl)-N-hydroxybenzamide], the IC50 at Human recombinant HDAC1 was 3230 nM; at human recombinant HDAC6 it was 3.1 nM. For the same compound, at human recombinant HDAC6, the “Selectivity for HDAC6, HD1/HD6” value is 1041.9.
As to `Cc1nccn1CC1C(=O)c2c(n(Cc3ccc(C(=O)NO)cc3)c3ccc(F)cc23)CC1(C)C` (stereo not drawn) [Compound 192, 4-((6-fluoro-2,2-dimethyl-3-((2-methyl-1H-imidazol-1-yl)methyl)-4-oxo-1,2,3,4-tetrahydrocarbazol-9-yl)methyl)-N-hydroxybenzamide], the IC50 at Human recombinant HDAC1 was 4610 nM. Moreover, on human recombinant HDAC6, the “Selectivity for HDAC6, HD1/HD6” value is 2546.4 and the IC50 was 1.8 nM.
Consider `Cc1cn(Cc2ccc(C(=O)NO)cc2)c2c1C(=O)NCC2` [Compound 232, N-hydroxy-4-((3-methyl-4-oxo-4,5,6,7-tetrahydropyrrolo[3,2-c]pyridin-1-yl)methyl)benzamide], for which the results for the IC50 on Human recombinant HDAC1 and at human recombinant HDAC6 were 4840 nM and 45 nM, respectively. Moreover, at human recombinant HDAC6, the “Selectivity for HDAC6, HD1/HD6” value is given as 107.4.
In the case of `CC1(C)CC(=O)C2c3c(F)cccc3N(CCCCCC(=O)NO)C2C1` (stereo not drawn) [Compound 60, 6-(5-fluoro-2,2-dimethyl-4-oxo-2,3,4,4a-tetrahydro-1H-carbazol-9(9aH)-yl)-N-hydroxyhexanamide], the IC50 on Human recombinant HDAC1 was 9180 nM. In addition, at human recombinant HDAC6, the “Selectivity for HDAC6, HD1/HD6” value is given as 127.4 and the IC50 worked out at 72 nM.
`Cc1c2c(n(CCCCCC(=O)NO)c1C)CC(C)(C)CC2=O` [Compound 350, N-hydroxy-6-(2,3,6,6-tetramethyl-4-oxo-4,5,6,7-tetrahydro-1H-indol-1-yl)hexanamide]: the IC50 at Human recombinant HDAC1 was found to be 1000 nM. On human recombinant HDAC6, the “Selectivity for HDAC6, HD1/HD6” value worked out at 9.8 and the IC50 was 102 nM.
Take `CC1CN(CC2CCc3c(c4cc(F)ccc4n3CCCCCC(=O)NO)C2=O)CC(C)O1` (stereo not drawn) [Compound 323, 6-(3-((2,6-dimethylmorpholino)methyl)-6-fluoro-4-oxo-1,2,3,4-tetrahydrocarbazol-9-yl)-N-hydroxyhexanamide]: the IC50 on Human recombinant HDAC1 was found to be 8970 nM. At human recombinant HDAC6, the “Selectivity for HDAC6, HD1/HD6” value stood at 102.2 and the IC50 stood at 87.8 nM.
`CC(C)(C)OC(=O)N1CCN(CC2CCc3c(c4ccccc4n3Cc3ccc(C(=O)NO)cc3)C2=O)CC1` (stereo not drawn) [Compound 140, tert-butyl 4-((9-(4-(hydroxycarbamoyl)benzyl)-4-oxo-2,3,4,9-tetrahydro-1H-carbazol-3-yl)methyl)piperazine-1-carboxylate]: the IC50 on Human recombinant HDAC1 worked out at 5900 nM. Besides, at human recombinant HDAC6, the “Selectivity for HDAC6, HD1/HD6” value is recorded as 325.2 and the IC50 worked out at 18.1 nM.
Take `CC1(C)CC(=O)c2c(n(Cc3ccc(C(=O)NO)cc3)c3cc(Br)ccc23)C1` [Compound 54, 4-((7-bromo-2,2-dimethyl-4-oxo-1,2,3,4-tetrahydrocarbazol-9-yl)methyl)-N-hydroxybenzamide]: at Human recombinant HDAC1, the IC50 is 1470 nM. At human recombinant HDAC6, the “Selectivity for HDAC6, HD1/HD6” value worked out at 24.7 and the IC50 amounted to 59.5 nM.
Take `CC1(C)CC(=O)c2c(n(CCCCCC(=O)NO)c3ccc(F)c(F)c23)C1` [Compound 74, 6-(5,6-difluoro-2,2-dimethyl-4-oxo-1,2,3,4-tetrahydrocarbazol-9-yl)-N-hydroxyhexanamide]: on Human recombinant HDAC1, the concentration for half-maximal inhibition (IC50) stood at 4720 nM. Also, on human recombinant HDAC6, the “Selectivity for HDAC6, HD1/HD6” value was found to be 33.3 and the IC50 was 141 nM.
`O=C(NO)c1ccc(Cn2c3c(c4cc(F)ccc42)C(=O)N(CCN2CCOCC2)CC3)cc1` [Compound 266]: at Human recombinant HDAC1, the IC50 stood at 2910 nM. On human recombinant HDAC6, the “Selectivity for HDAC6, HD1/HD6” value came to 2851 and the IC50 was found to be 1.02 nM.
As to `CC1(C)CC(=O)c2c(n(Cc3ccc(C(=O)NO)cc3)c3ccc(F)cc23)C1` [Compound 57, 4-((6-fluoro-2,2-dimethyl-4-oxo-1,2,3,4-tetrahydrocarbazol-9-yl)methyl)-N-hydroxybenzamide], at Human recombinant HDAC1, the IC50 was 3770 nM. Besides, at human recombinant HDAC6, the “Selectivity for HDAC6, HD1/HD6” value was found to be 168.3 and the IC50 was found to be 22.4 nM.
In the case of `Cc1c2c(n(Cc3ccc(C(=O)NO)cc3)c1C)CC(C)(C)CC2=O` [Compound 236, N-hydroxy-4-((2,3,6,6-tetramethyl-4-oxo-4,5,6,7-tetrahydro-1H-indol-1-yl)methyl)benzamide], the IC50 on Human recombinant HDAC1 is 5110 nM. Also, at human recombinant HDAC6, the “Selectivity for HDAC6, HD1/HD6” value is reported as 479.4 and the IC50 is 10.7 nM.
With `CN1CCN(CC2C(=O)c3c(n(Cc4ccc(C(=O)NO)cc4)c4ccc(F)cc34)CC2(C)C)CC1` (stereo not drawn) [Compound 209, 4-((6-fluoro-2,2-dimethyl-3-((4-methylpiperazin-1-yl)methyl)-4-oxo-1,2,3,4-tetrahydrocarbazol-9-yl)methyl)-N-hydroxybenzamide], the IC50 at Human recombinant HDAC1 was 365 nM. In addition, on human recombinant HDAC6, the “Selectivity for HDAC6, HD1/HD6” value is on record as 148.8 and the IC50 came out at 2.5 nM.
In the case of `CC(C)N1CCN(CC2CCc3c(c4ccccc4n3Cc3ccc(C(=O)NO)cc3)C2=O)CC1` (stereo not drawn) [Compound 113, N-hydroxy-4-((3-((4-isopropylpiperazin-1-yl)methyl)-4-oxo-1,2,3,4-tetrahydrocarbazol-9-yl)methyl)benzamide], the IC50 at Human recombinant HDAC1 amounted to 2440 nM. Besides, at human recombinant HDAC6, the “Selectivity for HDAC6, HD1/HD6” value is recorded as 287.1 and the IC50 is 8.5 nM.
